{
  "source": "patent US11098045B2",
  "about": "“Haloallylamine indole and azaindole derivative inhibitors of lysyl oxidases and uses thereof” (PHARMAXIS LTD., priority 2016, dated 2021)",
  "key": {"[1]": {"system": "Fibroblasts from confirmed cases of IPF", "assay": "In vitro fibroblastic foci model of IPF, collagen cross-link formation", "format": "cell-based", "details": "six weeks culture with TGF-β1; FIGS. 7a and 7b", "excerpt": "Reduction of Collagen Cross-Link Formation in an In Vitro Fibroblastic Foci Model of IPF\nThe lung tissue of patients with idiopathic pulmonary fibrosis (IPF) is characterised by dense collections of myofibroblasts and extracellular matrix (ECM) termed ‘fibroblastic foci’. Using a novel in vitro model of fibroblastic foci (Jones et al., AJRCCM 191; 2015:A4912) the formation of lysyl oxidase (LOX) mediated collagen cross-links and the effects of the non-selective LOX inhibitor β-aminopropionitrile (BAPN) as well lysyl oxidase like-2 (LOXL2)-selective inhibitors were investigated.\nCultures of primary fibroblasts were grown out from clinical diagnostic biopsies of fibrotic lung and stored in liquid nitrogen. […]\nTo quantify collagen cross-links (Robins Biochem Soc Trans 2007; 35(5): 849-852; Saito et al Anal. Biochem. 1997; 253: 26-32; Sims, Avery & Bailey Methods in Molecular Biology 2000; vol 139: 11-26), cultures were treated with potassium borohydride to stabilise the reducible immature cross-links, and hydrolysed in 6N HCl at 100° C. for 16 hr. Total collagen content was assessed by hydroxyproline assay. Immature cross-links were assessed by LC/MS/MS and mature pyridinoline cross-links by ELISA. Cross-link data is expressed as moles of cross-link per mole collagen. […]"}, "[2]": {"system": "Bleomycin induced lung fibrosis", "assay": "Bleomycin induced lung fibrosis model", "format": "in vivo", "details": "mouse, intranasal bleomycin; 15 mg/kg", "experimental": "Inhibition of Bleomycin Induced Lung Fibrosis\nBleomycin induced lung fibrosis in rodents is a widely accepted experimental model to determine the anti-fibrotic activity of therapeutic agents.\nFibrosis is induced by intranasal administered of bleomycin sulphate at a dose of 0.05 U/mouse in a total volume of 50 uL PBS (see Corbel, M., et al Inhibition of bleomycin-induced pulmonary fibrosis in mice by the matrix metalloproteinase inhibitor batimastat J Pathol. 2001 April; 193(4):538-45.) Compound 12 is given 0.1-100 mg/Kg throughout the period of the experimental procedure or 7 days after bleomycin administration and then throughout the entire study.\nFormalin fixed lungs sections stained with haematoxylin and eosin are assessed for fibrosis as per the scale outlined by Ashcroft et al (Simple method of estimating severity of pulmonary fibrosis on a numerical scale J Clin Pathol 1988; 41:467-470)."}, "[3]": {"system": "Streptozotocin induced diabetic nephropathy", "assay": "Streptozotocin induced diabetic nephropathy model", "format": "in vivo, mouse", "details": "diabetic eNOS knockout mice, 24 weeks treatment, 0.1-100 mg/Kg", "excerpt": "Inhibition of Streptozotocin Induced Diabetic Nephropathy\nStreptozotocin (STZ)-induced diabetic nephropathy is commonly used for creating rodent models of type 1 diabetes which develop renal injury, due to pancreatic cell damage with similarities to human diabetic nephropathy.\nThis model can be established for investigating anti-fibrotic effects of compounds in the development of kidney fibrosis.\nDiabetes is induced in eNOS knockout mice on C57BL/6 background by intraperitoneal STZ injection (55 mg/kg in 0.1 M citrate buffer) in mice of 6-9 weeks of age (see Huang C et al, Blockade of KCa3.1 ameliorates renal fibrosis through a TGF-b1/Smad pathway in diabetic mice. Diabetes, 2013 62(8):2923-2934).\nBlood sugar level (BSL) is determined by tail vein blood. Mice with BSL>16 mmol/L two weeks post STZ injection are considered diabetic. Treatment with Compound 12 is carried out for 24 weeks from diagnosis of diabetes at a dose of 0.1-100 mg/Kg."}, "[4]": {"system": "CCl4 induced liver fibrosis", "assay": "CCl4 induced liver fibrosis model", "format": "in vivo, rat", "details": "rats, oral CCl4 for 6 weeks; 0.1-100 mg/Kg; compared with vehicle-treated group", "experimental": "Inhibition of CCl4 Induced Liver Fibrosis\nAn analysis of the use of LOXL2 inhibitors to treat inflammatory/fibrotic diseases is performed through the use of a CCl4 induced liver fibrosis model. Liver injury is frequently followed by complete parenchymal regeneration due to regenerative potency of hepatocytes. Continuous liver injury due to the administration of CCl4 leads to extracellular matrix accumulation, accompanied by recurrent hepatocyte necrosis, inflammation, and regenerative processes, causing liver fibrosis and consequently liver cirrhosis (see Natsume, M., et al., Attenuated liver fibrosis and depressed serum albumin levels in carbon tetrachloride-treated IL-6-deficient mice. J. Leukoc. Biol., 1999, 66, 601-608 also See Yao, Q. Y., et al. Inhibition by curcumin of multiple sites of the transforming growth factor-beta1 signalling pathway ameliorates the progression of liver fibrosis induced by carbon tetrachloride in rats. BMC Complement Altern Med. 2012 Sep. 16; 12(1):156.)\nRats are administered orally with CCl4 at a concentration of 0.25 μL/g in olive oil, 3 times per week for 6 weeks. Compound 25 is given 0.1-100 mg/Kg throughout the period of the experimental procedure or only 3 weeks after CCl4 administration and then throughout the entire study. […]"}, "[5]": {"system": "Myocardial infarction induced fibrosis", "assay": "Myocardial infarction induced fibrosis model", "format": "in vivo, mouse", "details": "mice, 0.1-100 mg/Kg once a day by oral gavage; FIG. 5", "excerpt": "Inhibition of Myocardial Infarction Induced Fibrosis\nCarotic ligation is a widely accepted experimental model to induce cardiac fibrosis and to determine the anti-fibrotic activity of therapeutic agents.\nIn mice, the chest is opened via a left thoracotomy. The left coronary artery is identified visually using a stereo microscope, and a 7-0 suture is placed around the artery 1-2 mm below the left auricle. Permanent occlusion of the left coronary artery resulted from its ligation with the suture. Myocardial ischemia was confirmed by pallor in heart color and ST-segment elevation. (see Parajuli et al. Phosphatase PTEN is critically involved in post-myocardial infarction remodeling through the Akt/interleukin-10 signaling pathway Basic Res Cardiol (2012) 107:248).\nMice were subjected to sham or carotic ligation surgery. At 24 hrs post-surgery, echocardiography was performed on the mice. Mice were treated with compound 25 0.1-100 mg/Kg once a day for 21 (7 days after carotic ligation) or 28 days or saline as vehicle controls by oral gavage. At the end of the experiment, echocardiography was repeated to assess left ventricular function and remodeling. Then mice were euthanized for heart collection. Each heart was photographed and fixed with 10% formalin. Hearts were sectioned for Masson's trichrome stain to measure fibrosis (See FIG. 5)."}, "[6]": {"system": "Streptozotocin and high fat diet induced liver fibrosis", "assay": "Streptozotocin and high fat diet induced liver fibrosis (STAM model)", "format": "in vivo, mouse", "details": "STAM mice, daily oral gavage 10-30 mg/kg; FIG. 6", "experimental": "Streptozotocin and High Fat Diet Induced Liver Fibrosis\nHigh fat/carbohydrate diet induced liver fibrosis is the most common reason for liver dysfunction and ultimately liver failure. NASH is induced in male mice by a single subcutaneous injection of 200 μg streptozotocin solution 2 days after birth and feeding with high fat diet after 4 weeks of age (STAM™ model).\nLOXL2 inhibitor compound 112 was administered by daily oral gavage at doses between 10-30 mg/kg 8 weeks after streptozotocin application. Mice were sacrificed after NASH had been established and whole blood samples were taken via cardiac puncture. Liver samples were collected and washed with cold saline. Liver weight was measured. The left lateral, right and caudate lobes of livers were snap frozen in liquid nitrogen and stored at −80° C. For HE staining, sections were cut from paraffin blocks of liver tissue prefixed in Bouin's solution and stained with Lillie-Mayer's Hematoxylin and eosin solution. NAFLD Activity score (NAS) was calculated according to the criteria of Kleiner (Kleiner D E. et al., Design and validation of a histological scoring system for nonalcoholic fatty liver disease. Hepatology, 2005; 41:1313). To visualize collagen deposition, Bouin's fixed liver sections were stained using picro-Sirius red solution and the area of fibrosis was quantified (See FIG. 6)."}},
  "note": "Where a name gives a salt, the structure may show the parent alone.",
  "data": [
    {"smiles": "N#CCCN", "note": "[BAPN, β-aminopropionitrile, reference compound]", "values": [
      {"measurement": "collagen cross-link formation (immature and mature cross-links)", "setting": "[1]", "result": "reduced cross-link formation in a concentration dependent manner"}
    ]},
    {"smiles": "CCOC(=O)c1ccc2c(c1)c(-c1cccc(S(=O)(=O)N(C)C)c1)c(C)n2C/C(F)=C/CN", "note": "[Compound 12, (Z)-ethyl 1-(4-amino-2-fluorobut-2-en-1-yl)-3-(3-(N,N-dimethylsulfamoyl)phenyl)-2-methyl-1H-indole-5-carboxylate]", "values": [
      {"measurement": "Ashcroft score in the lungs", "setting": "[2]", "result": "significantly reduced this score"},
      {"measurement": "kidney function by albumin/creatinine ratio quantification", "setting": "[3]", "result": "significant improvement in kidney function"},
      {"measurement": "reduction of fibrosis by Masson's Trichrome staining", "setting": "[3]; compared with vehicle-treated group", "result": "up to 50%"}
    ]},
    {"smiles": "Cc1c(-c2cccc(S(=O)(=O)N(C)C)c2)c2ncccc2n1C/C(F)=C/CN", "note": "[Compound 25, (Z)-3-(1-(4-amino-2-fluorobut-2-en-1-yl)-2-methyl-1H-pyrrolo[3,2-b]pyridin-3-yl)-N,N-dimethylbenzenesulfonamide Dihydrochloride]", "values": [
      {"measurement": "reduction of fibrosis in the liver by sirius red staining with quantification", "setting": "[4]", "result": "up to 50%"},
      {"measurement": "fibrosis after ligation (Masson's trichrome stain)", "setting": "[5]", "result": "reduce fibrosis"}
    ]},
    {"smiles": "Cc1ccc2c(n1)c(-c1cccc(S(C)(=O)=O)c1)c(C)n2C/C(F)=C/CN", "note": "[Compound 112, (Z)-4-(2,5-dimethyl-3-(3-(methylsulfonyl)phenyl)-1H-pyrrolo[3,2-b]pyridin-1-yl)-3-fluorobut-2-en-1-amine Dihydrochloride]", "values": [
      {"measurement": "collagen cross-link formation (immature and mature cross-links)", "setting": "[1]", "result": "reduced cross-link formation in a concentration dependent manner"},
      {"measurement": "liver fibrosis (picro-Sirius red area of fibrosis)", "setting": "[6]", "result": "reduce liver fibrosis"}
    ]}
  ]
}
